# Columns and labels:
# [1] = test system: STAT1 (phosphorylated at Tyr701) in NCI-H1373 cells; test: Phospho-STAT1 (Tyr701) LANCE Ultra TR-FRET Detection Assay; assay type: cell-based; conditions: Homo sapiens, 48 hours, induction of pSTAT1, normalized to 10 uM positive control and DMSO, 4-parameter fit, read-out: NH1373 pSTAT1 EC50
# In short: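 Endogenous STAT1 Tyr701 phosphorylation induced by compound was measured after seeding 30,000 cells/well onto compound-spotted plates and incubating 48 h at 37 °C, 5% CO2. Lysates were incubated with a sandwich antibody pair overnight at room temperature, and TR-FRET emission was read at 665 and 620 nm.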
# [2] = molecular target: T1, PARP7 (Homo sapiens, UniProt Q7Z3E1); test: biochemical;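 note: MSD light signal quantifying PARP7 captured by a plate-immobilized probe, read after 1.5 h equilibration plus 1.5 h with SULFO-TAG anti-GST antibody at room temperature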
# T1 sequence (Q7Z3E1 1-657): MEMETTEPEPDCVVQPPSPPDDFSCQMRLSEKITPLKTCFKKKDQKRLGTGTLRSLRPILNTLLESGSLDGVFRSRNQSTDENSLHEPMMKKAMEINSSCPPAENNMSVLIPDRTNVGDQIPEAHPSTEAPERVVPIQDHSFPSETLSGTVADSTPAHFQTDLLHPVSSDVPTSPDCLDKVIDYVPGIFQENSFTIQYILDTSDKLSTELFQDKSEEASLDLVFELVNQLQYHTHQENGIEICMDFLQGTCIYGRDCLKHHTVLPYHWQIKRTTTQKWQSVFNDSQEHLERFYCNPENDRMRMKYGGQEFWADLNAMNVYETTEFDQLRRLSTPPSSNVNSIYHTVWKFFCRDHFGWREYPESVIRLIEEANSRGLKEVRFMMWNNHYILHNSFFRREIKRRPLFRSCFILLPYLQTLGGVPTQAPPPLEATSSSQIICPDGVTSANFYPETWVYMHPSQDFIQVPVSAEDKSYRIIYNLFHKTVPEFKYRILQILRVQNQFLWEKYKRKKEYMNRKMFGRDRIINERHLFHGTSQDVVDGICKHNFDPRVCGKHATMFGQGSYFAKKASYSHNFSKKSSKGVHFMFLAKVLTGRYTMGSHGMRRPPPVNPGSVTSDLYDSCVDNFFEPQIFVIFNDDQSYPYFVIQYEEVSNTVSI
# Experimental: Probe Displacement Assay for PARP7 Displacement of a biotinylated probe (RBN011147; Wigle et al., Cell Chemical Biology, 2020, pp. 877-887) from the PARP7 NAD+-binding site was measured in vitro using a Mesoscale Discovery electrochemiluminescent assay. […] Next, 10 μl of 10 nM PARP7 protein incubated for 1 hour at room temperature with a dose response curve of each test compound in a Greiner LDV polypropylene plate (#781201) is added to the MSD plate containing the immobilized probe. The interaction is allowed to reach equilibrium for 1.5 hours, and then 10 ul of SULFO-TAG labeled anti-GST antibody (Cat #R32AA-1) is added to each well and allowed to incubate for an additional 1.5 hours at room temperature. Finally, 10 μl of MSD read buffer T (4×, Cat. #R92C-1) is added to each well using a Bravo liquid handler to prevent air bubbles in the wells, and the plates are subsequently read in an MSD instrument. Light intensity is then measured to quantify the amount of PARP7 bound to the immobilized probe on the plate.
Structure (SMILES),IC50 [2] [nM],EC50 [1] [nM]
"O=C([C@@H]1CCc2ccccc2N1c1cc(C(F)(F)F)c(=O)[nH]n1)N1CCN(c2ncc(C(F)(F)F)cn2)CC1 [Example 58, 5-(trifluoromethyl)-3-[(2S)-2-[4-[5-(trifluoromethyl)pyrimidin-2-yl]piperazine-1-carbonyl]-3,4-dihydro-2H-quinolin-1-yl]-1H-pyridazin-6-one]",4.36,2110
"O=C([C@@H]1CCC[C@H](Nc2cc(C(F)(F)F)c(=O)[nH]n2)C1)N1CCN(c2ncc(C(F)(F)F)cn2)CC1 [Example 60, 5-(trifluoromethyl)-3-[[(1S,3R)-3-[4-[5-(trifluoromethyl)pyrimidin-2-yl]piperazine-1-carbonyl]cyclohexyl]amino]-1H-pyridazin-6-one]",1.07,≥ 10000
"O=C([C@H]1CCC[C@H](Nc2cc(C(F)(F)F)c(=O)[nH]n2)C1)N1CCN(c2ncc(C(F)(F)F)cn2)CC1 [Example 61, 5-(trifluoromethyl)-3-[[(1S,3S)-3-[4-[5-(trifluoromethyl)pyrimidin-2-yl]piperazine-1-carbonyl]cyclohexyl]amino]-1H-pyridazin-6-one]",1.78,≥ 10000
"O=C([C@@H]1CC[C@H](Nc2cc(C(F)(F)F)c(=O)[nH]n2)C1)N1CCN(c2ncc(C(F)(F)F)cn2)CC1 [Example 62, 5-(trifluoromethyl)-3-[[(1S,3R)-3-[4-[5-(trifluoromethyl)pyrimidin-2-yl]piperazine-1-carbonyl]cyclopentyl]amino]-1H-pyridazin-6-one]",1.29,2200
"O=C(C[C@@H]1CCN(c2cc(C(F)(F)F)c(=O)[nH]n2)C1)N1CCN(c2ncc(C(F)(F)F)cn2)CC1 [Example 67, 3-[(3S)-3-[2-oxo-2-[4-[5-(trifluoromethyl)pyrimidin-2-yl]piperazin-1-yl]ethyl]pyrrolidin-1-yl]-5-(trifluoromethyl)-1H-pyridazin-6-one]",0.848,2270
"Cc1cc(CCCCC(=O)N2CCN(c3ncc(C(F)(F)F)cn3)CC2)n[nH]c1=O [Example 68, 5-methyl-3-[5-oxo-5-[4-[5-(trifluoromethyl)pyrimidin-2-yl]piperazin-1-yl]pentyl]-1H-pyridazin-6-one]",5.66,1320
"O=C(CCCCc1n[nH]c(=O)c2c1CCCC2)N1CCN(c2ncc(C(F)(F)F)cn2)CC1 [Example 69, 4-[5-oxo-5-[4-[5-(trifluoromethyl)pyrimidin-2-yl]piperazin-1-yl]pentyl]-5,6,7,8-tetrahydro-2H-phthalazin-1-one]",0.755,160

# The next lines start with results.
IC50 [2] [nM],Structure (SMILES),EC50 [1] [nM]
0.372,"O=C(N1CCN(c2ncc(C(F)(F)F)cn2)CC1)C1(CCNc2cc(C(F)(F)F)c(=O)[nH]n2)CC1 [Example 70, 5-(trifluoromethyl)-3-[2-[1-[4-[5-(trifluoromethyl)pyrimidin-2-yl]piperazine-1-carbonyl]cyclopropyl]ethylamino]-1H-pyridazin-6-one]",319
1.33,"CC(C)(CCNc1cc(C(F)(F)F)c(=O)[nH]n1)C(=O)N1CCN(c2ncc(C(F)(F)F)cn2)CC1 [Example 71, 3-[[3,3-dimethyl-4-oxo-4-[4-[5-(trifluoromethyl)pyrimidin-2-yl]piperazin-1-yl]butyl]amino]-5-(trifluoromethyl)-1H-pyridazin-6-one]",2560
0.497,"O=C(N1CCN(c2ncc(C(F)(F)F)cn2)CC1)C(F)(F)CCNc1cc(C(F)(F)F)c(=O)[nH]n1 [Example 72, 3-[[3,3-difluoro-4-oxo-4-[4-[5-(trifluoromethyl)pyrimidin-2-yl]piperazin-1-yl]butyl]amino]-5-(trifluoromethyl)-1H-pyridazin-6-one]",206
1.79,"O=C(CCNCc1cc(C(F)(F)F)c(=O)[nH]n1)N1CCN(c2ncc(C(F)(F)F)cn2)CC1 [Example 73, 6-(((3-oxo-3-(4-(5-(trifluoromethyl)pyrimidin-2-yl)piperazin-1-yl)propyl)amino)methyl)-4-(trifluoromethyl)pyridazin-3(2H)-one]",2030
2.01,"O=C([C@@H]1CN(Cc2cc(C(F)(F)F)c(=O)[nH]n2)CCO1)N1CCN(c2ncc(C(F)(F)F)cn2)CC1 [Example 74, 5-(trifluoromethyl)-3-[[(2S)-2-[4-[5-(trifluoromethyl)pyrimidin-2-yl]piperazine-1-carbonyl]morpholin-4-yl]methyl]-1H-pyridazin-6-one]",1790
5.12,"O=C([C@H]1CN(Cc2cc(C(F)(F)F)c(=O)[nH]n2)CCO1)N1CCN(c2ncc(C(F)(F)F)cn2)CC1 [Example 75, 5-(trifluoromethyl)-3-[[(2R)-2-[4-[5-(trifluoromethyl)pyrimidin-2-yl]piperazine-1-carbonyl]morpholin-4-yl]methyl]-1H-pyridazin-6-one]",1350
0.142,"O=C(CCC[C@@H]1CCc2c1n[nH]c(=O)c2C(F)(F)F)N1CCN(c2ncc(C(F)(F)F)cn2)CC1 [Example 78, (R)-7-(4-oxo-4-(4-(5-(trifluoromethyl)pyrimidin-2-yl)piperazin-1-yl)butyl)-4-(trifluoromethyl)-2,5,6,7-tetrahydro-3H-cyclopenta[c]pyridazin-3-one]",24.1
2.71,"O=C(CCC[C@H]1CCc2c1n[nH]c(=O)c2C(F)(F)F)N1CCN(c2ncc(C(F)(F)F)cn2)CC1 [Example 79, (S)-7-(4-oxo-4-(4-(5-(trifluoromethyl)pyrimidin-2-yl)piperazin-1-yl)butyl)-4-(trifluoromethyl)-2,5,6,7-tetrahydro-3H-cyclopenta[c]pyridazin-3-one]",316
